Measurements as given in publication PMC4837090 (Nature chemical biology, 2016).

How the values were obtained:
LNCaP cells = test: in situ 13C,2H-PAHSA hydrolysis; assay type: cell-based, human; details: 5 μM, 4 h, then 2 μM 13C,2H-PAHSA 2 h
hAIG1 = biological target: T1, hAIG1 (Homo sapiens, UniProt Q9NVV5); assay type: binding
T1 sequence (Q9NVV5 1-238): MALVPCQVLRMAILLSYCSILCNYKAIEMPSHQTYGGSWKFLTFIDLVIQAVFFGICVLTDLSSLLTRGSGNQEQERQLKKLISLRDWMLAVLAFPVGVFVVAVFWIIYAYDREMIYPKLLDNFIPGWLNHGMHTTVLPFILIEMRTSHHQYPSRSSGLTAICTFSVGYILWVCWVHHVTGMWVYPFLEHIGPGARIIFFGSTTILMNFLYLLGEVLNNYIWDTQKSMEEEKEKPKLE

## CCCCCCCCCCC[C@@H](C[C@@H]1OC(=O)[C@H]1CCCCCC)OC(=O)[C@H](CC(C)C)NC=O [THL, tetrahydrolipstatin]
LNCaP cells
  reduction in 13C16-PA and 2H19-HSA products (13C,2H-PAHSA hydrolysis) vs DMSO: negligible alterations
hAIG1
  inhibition of FP reactivity of AIG1: did not inhibit
